≈ marks a conversion by molar mass, not a printed value. Entries after “also recorded” stand apart in the source; their conditions may differ. Like-named read-outs stand apart in the source and are kept apart here.
What was measured:
[1] = Max. solubility (Table 1); assay type: physicochemical
[2] = test system: activity-regulated Gln/MeAIB transport (SNAT activity) in hippocampal neurons; test: Activity-regulated (spontaneous, 4-AP- or K+-stimulated) [14C]-MeAIB transport in primary hippocampal neurons; assay type: cell-based, rat; set-up: block of transport activity: dose or concentration left out as unconfirmed; settings: for potency to inhibit activity-regulated MeAIB transport relative to a comparator, in words: spontaneous and 4-AP stimulated transport; for IC50 / inhibition at 10 µM: Rattus norvegicus, Hippocampal neuron; for inhibition at 10 µM: read-out: block / inhibition of transport activity; for Active (annotation beside the compound name: active vs inactive derivatives): Table 1: SKA-41, and active and inactive derivatives; for reduction of activity-regulated Gln/MeAIB transport after preconditioning: brief exposure (KCl 45 mM, Glu or NMDA), transport measured after 24 hr
[3] = hippocampal neurons in vitro, 14C-MeAIB 20 μM, read-out: IC50 to inhibit activity-regulated Gln/MeAIB transport
[4] = 4-AP-stimulated (depolarization) [14C]-MeAIB uptake, DIV16, n in brackets, read-out: SNAT Activity IC50, 4-AP
[5] = spontaneous [14C]-MeAIB uptake, DIV 19, n in brackets, read-out: SNAT Activity IC50, Spont

## Cc1ccc(-c2csc(Nc3ccc(C(F)(F)F)cc3)n2)cc1 [SKA-269, 4-(p-Tolyl)-N-(4-(trifluoromethyl)phenyl)thiazol-2-amine]
[1]
  solubility: 10 µM (≈ 3.34 µg/mL)
other
  melting point: 155 °C

## Nc1nc(-c2ccc(F)cc2)cs1 [SKA-77]
[1]
  solubility: 100 µM (≈ 19.4 µg/mL)

## Nc1nc(-c2ccc3ccccc3c2)c(Cl)s1 [SKA-379, 5-Chloro-4-(naphthalen-2-yl)thiazol-2-amine]
[2]
  potency to inhibit activity-regulated MeAIB transport relative to a comparator, in words: as active as SKA-219 and SKA-220, respectively

## Nc1nnc(-c2cccc(Cl)c2Cl)c(N)n1 [lamotrigine, reference compound]
[2]; [3]
  IC50: 20 µM

## Nc1nc(-c2ccc(-c3ccc(-c4csc(N)n4)cc3)cc2)cs1 [SKA-255]
[1]
  solubility: 10 µM (≈ 3.5 µg/mL)

## Cc1ccc2cccc(-c3csc(N)n3)c2c1 [SKA-193, 4-(7-Methylnaphthalen-1-yl)thiazol-2-amine]
[2]
  block of transport activity: 90%
  inhibition at 10 µM: 90%
  Active (annotation beside the compound name: active vs inactive derivatives): SKA-193 Active
[2]; screens, 10 μM, GABA 2 mM
  inhibition of spontaneous activity-regulated 14C-MeAIB transport, in words: blocked spontaneous transport activity; also recorded: inhibited spontaneous transport activity
[1]
  solubility: 50 µM (≈ 12 µg/mL)
other
  melting point: 154 to 156 °C

## Clc1ccc(Nc2nc(-c3cccc4ccccc34)cs2)cc1Cl [SKA-257, N-(3,4-Dichlorophenyl)-4-(naphthalen-1-yl)thiazol-2-amine]
[1]
  solubility: 10 µM (≈ 3.71 µg/mL)
other
  melting point: 243 to 244 °C

## Cc1ccc(-c2csc(Nc3cccc(C(F)(F)F)c3)n2)cc1 [SKA-260, 4-(p-Tolyl)-N-(3-(trifluoromethyl)phenyl)thiazol-2-amine]
[1]
  solubility: 10 µM (≈ 3.34 µg/mL)
other
  melting point: 108 °C

## Nc1nc(-c2ccc(Cl)cc2)cs1 [SKA-80]
[1]
  solubility: 50 µM (≈ 10.5 µg/mL)

## c1ccc(-c2csc(Nc3ccccn3)n2)cc1 [SKA-265, 4-Phenyl-N-(pyridin-2-yl)thiazol-2-amine]
[1]
  solubility: 50 µM (≈ 12.7 µg/mL)

## Cc1nc(-c2ccccc2)c(C)s1 [SKA-89]
[2]; screens, 10 μM, GABA 2 mM
  inhibition of spontaneous activity-regulated 14C-MeAIB transport, in words: inactive
[1]
  solubility: 100 µM (≈ 18.9 µg/mL)

## Nc1nc(-c2ccsc2)cs1 [SKA-94]
[2]; screens, 10 μM, GABA 2 mM
  inhibition of spontaneous activity-regulated 14C-MeAIB transport, in words: inactive
[1]
  solubility: 100 µM (≈ 18.2 µg/mL)

## c1ccc(Nc2nc(-c3cccc4ccccc34)cs2)nc1 [SKA-258, 4-(Naphthalen-1-yl)-N-(pyridin-2-yl)thiazol-2-amine]
[1]
  solubility: 10 µM (≈ 3.03 µg/mL)
other
  melting point: 225 °C

## Nc1nc(-c2cccc3ccccc23)c(Cl)s1 [drawing 70]
[2]
  fold difference 4-AP IC50 over Spont IC50: 4.3 x
[2]; [4]
  IC50: 5.2 µM
[2]; [5]
  IC50: 1.2 µM

## CN[C@H](CC(=O)O)C(=O)O [NMDA, N-methyl-D-aspartate, reference compound]
[2]
  reduction of activity-regulated Gln/MeAIB transport after preconditioning: ~50%

## Nc1nc(-c2ccccc2)cs1 [SKA-78]
[1]
  solubility: 100 µM (≈ 17.6 µg/mL)

## FC(F)(F)c1ccc(Nc2nc(-c3ccccc3)cs2)cc1 [SKA-268, 4-Phenyl-N-(4-(trifluoromethyl)phenyl)thiazol-2-amine]
[1]
  solubility: 10 µM (≈ 3.2 µg/mL)
other
  melting point: 153 °C

## Nc1nc(-c2ccc(-c3ccccc3)cc2)cs1 [SKA-232]
[1]
  solubility: 50 µM (≈ 12.6 µg/mL)

## O=C1NC(=O)C(c2ccccc2)(c2ccccc2)N1 [phenytoin, reference compound]
[2]
  potency of riluzole relative to phenytoin to inhibit activity-regulated Gln/MeAIB transport: 50 ×
[2]; [3]
  IC50: 57 µM

## Cc1nc(-c2ccccc2)cs1 [SKA-88]
[1]
  solubility: 100 µM (≈ 17.5 µg/mL)

## Nc1nc(-c2ccc(-c3csc(N)n3)cc2)cs1 [SKA-230, 4,4′-(1,4-Phenylene)bis(thiazol-2-amine)]
[1]
  solubility: 50 µM (≈ 13.7 µg/mL)
other
  melting point: 350 °C

## Cc1ccc(-c2nc(N)sc2Cl)c2ccccc12
[2]
  fold difference 4-AP IC50 over Spont IC50: 5.2 x
[2]; [4]
  IC50: 7.4 µM
[2]; [5]
  IC50: 1.4 µM

## COc1ccc(CCN(C)CCCC(C#N)(c2ccc(OC)c(OC)c2)C(C)C)cc1OC (stereo not drawn) [verapamil, reference compound]
[2]
  inhibition of spontaneous activity-regulated 14C-MeAIB transport, in words: blocked

## [Cl-].[K+] [KCl]
[2]
  reduction of activity-regulated Gln/MeAIB transport after preconditioning: ~50%

## Cc1ccc(-c2csc(N)n2)c2ccccc12 [SKA-190, 4-(4-Methylnaphthalen-1-yl)thiazol-2-amine]
[2]
  block of transport activity: 90%
  inhibition at 10 µM: 90%
  Active (annotation beside the compound name: active vs inactive derivatives): SKA-190 Active
[2]; screens, 10 μM, GABA 2 mM
  inhibition of spontaneous activity-regulated 14C-MeAIB transport, in words: blocked spontaneous transport activity; also recorded: inhibited spontaneous transport activity
[1]
  solubility: 50 µM (≈ 12 µg/mL)

## N[C@@H](CCC(=O)O)C(=O)O [Glu, glutamate]
[2]
  reduction of activity-regulated Gln/MeAIB transport after preconditioning: ~50%

## Cc1sc(N)nc1-c1ccc(C)c2ccccc12 [SKA-247, 5-Methyl-4-(4-methylnaphthalen-1-yl)thiazol-2-amine]
[2]
  block of transport activity: 90%
  inhibition at 10 µM: 90%
  Active (annotation beside the compound name: active vs inactive derivatives): SKA-247 Active
[2]; [3]
  IC50: ~2 µM
[2]; screens, 10 μM, GABA 2 mM
  inhibition of spontaneous activity-regulated 14C-MeAIB transport, in words: blocked spontaneous transport activity; also recorded: inhibited spontaneous transport activity
[1]
  solubility: 50 µM (≈ 12.7 µg/mL)

## CN[C@@H]1C[C@H]2O[C@@](C)([C@@H]1OC)n1c3ccccc3c3c4c(c5c6ccccc6n2c5c31)C(=O)NC4 [staurosporine, reference compound]
[2]; staurosporine 200 nM
  effect on PMA stimulation of 14C-MeAIB transport: abolished

## Cc1ccc(-c2nc(N)sc2Br)c2ccccc12
[2]
  fold difference 4-AP IC50 over Spont IC50: 4.4 x
[2]; [4]
  IC50: 4.4 µM
[2]; [5]
  IC50: 1 µM

## Nc1nc(-c2ccc3ccccc3c2)c(Cl)s1 [drawing 71]
[2]
  fold difference 4-AP IC50 over Spont IC50: 1.5 x
[2]; [4]
  IC50: 9.3 µM
[2]; [5]
  IC50: 6.2 µM

## Nc1nc(-c2ccc3ccccc3c2)cs1 [SKA-76, 4-(Naphthalen-2-yl)thiazol-2-amine]
[2]
  inhibition at 10 µM: > 50%
  potency to inhibit activity-regulated MeAIB transport relative to a comparator, in words: much less potent than riluzole
[2]; screens, 10 μM, GABA 2 mM
  inhibition of spontaneous activity-regulated 14C-MeAIB transport, in words: inhibited spontaneous transport activity
[1]
  solubility: 25 µM (≈ 5.66 µg/mL)

## Nc1nc(-c2ccc3ccccc3c2)c(Br)s1 [SKA-220, 5-Bromo-4-(naphthalen-2-yl)thiazol-2-amine]
[2]
  inhibition at 10 µM: 90%
  Active (annotation beside the compound name: active vs inactive derivatives): SKA-220 Active
  potency to inhibit activity-regulated MeAIB transport relative to a comparator, in words: as potent as riluzole
[2]; screens, 10 μM, GABA 2 mM
  inhibition of spontaneous activity-regulated 14C-MeAIB transport, in words: blocked spontaneous transport activity; also recorded: inhibited spontaneous transport activity
[1]
  solubility: 25 µM (≈ 7.63 µg/mL)
other
  melting point: 140 to 141 °C

## Cc1ccc(-c2csc(N)n2)c2ccccc12 [drawing 63]
[2]
  fold difference 4-AP IC50 over Spont IC50: 4.5 x
[2]; [4]
  IC50: 11.7 µM
[2]; [5]
  IC50: 2.6 µM

## Cc1sc(N)nc1-c1ccccc1 [SKA-82]
[1]
  solubility: 100 µM (≈ 19 µg/mL)

## Nc1nc(-c2ccc3ccccc3c2)c(F)s1
[2]
  fold difference 4-AP IC50 over Spont IC50: 1.3 x
[2]; [4]
  IC50: 17.9 µM
[2]; [5]
  IC50: 13.3 µM

## Nc1ccncc1 [4-AP, 4-aminopyridine, reference compound]
[2]; 200 μM 4-AP
  maximal stimulation of high-affinity 14C-MeAIB transport: ~2 ×

## Nc1nc(-c2ccc(OC(F)(F)F)cc2)c(Cl)s1
[2]
  fold difference 4-AP IC50 over Spont IC50: 1.6 x
[2]; [4]
  IC50: 7.4 µM
[2]; [5]
  IC50: 4.6 µM

## CCCCCCCCCCCCCC(=O)O[C@@H]1[C@@H](C)[C@@]2(O)[C@@H](C=C(CO)C[C@]3(O)C(=O)C(C)=C[C@@H]23)[C@@H]2C(C)(C)[C@]12OC(C)=O [PMA, phorbal myristate acetate, reference compound]
[2]; PMA 10 min prior to KCl (60 mM) depolarization
  stimulation of 14C-MeAIB transport: two-fold

## Nc1nc(-c2cccc3ccccc23)cs1 [SKA-75, 4-(Naphthalen-1-yl)thiazol-2-amine]
[2]
  inhibition at 10 µM: > 50%
  potency to inhibit activity-regulated MeAIB transport relative to a comparator, in words: much less potent than riluzole
[2]; screens, 10 μM, GABA 2 mM
  inhibition of spontaneous activity-regulated 14C-MeAIB transport, in words: inhibited spontaneous transport activity
[1]
  solubility: 25 µM (≈ 5.66 µg/mL)

## Cc1ccc2cc(-c3csc(N)n3)ccc2c1 [SKA-198, 4-(6-Methylnaphthalen-2-yl)thiazol-2-amine]
[2]
  inhibition at 10 µM: > 50%
[2]; screens, 10 μM, GABA 2 mM
  inhibition of spontaneous activity-regulated 14C-MeAIB transport, in words: inhibited spontaneous transport activity
[1]
  solubility: 50 µM (≈ 12 µg/mL)
other
  melting point: 178 to 179 °C

## FC(F)(F)c1cccc(Nc2nc(-c3cccc4ccccc34)cs2)c1 [SKA-251, 4-(Naphthalen-1-yl)-N-(3-(trifluoromethyl)phenyl)thiazol-2-amine]
[1]
  solubility: 10 µM (≈ 3.7 µg/mL)
other
  melting point: 135 °C

## c1ccc(Nc2nc(-c3ccccc3)cs2)cc1 [SKA-292, N,4-Diphenylthiazol-2-amine]
[1]
  solubility: 25 µM (≈ 6.31 µg/mL)
other
  melting point: 135 to 137 °C

## Cc1ccc(-c2csc(N)n2)cc1 [SKA-79]
[1]
  solubility: 100 µM (≈ 19 µg/mL)

Reference: patent US11974988B2, “Neuroprotective compositions and methods of using the same” (The Board of Supervisors of Louisiana State Univer …, priority 2018, dated 2024)
